{"source": "paper PMC5218480", "about": "(PLoS ONE, 2017)", "tested_on": "MV-4-11 cells", "assay": "Gene expression microarray analysis (Affymetrix PrimeView) and GSEA", "format": "cell-based, human", "design": "RFU PODN (11730768_x_at) / Fold change /veh PODN (11730768_x_at) / RFU LINC00158 (11744669_a_at) / Fold change /veh LINC00158 (11744669_a_at) / RFU DUSP10 (11751237_a_at) / Fold change /veh DUSP10 (11751237_a_at) / RFU ID3 (11757404_x_at) / Fold change /veh ID3 (11757404_x_at) / RFU PLEKHG5 (11737974_s_at) / Fold change /veh PLEKHG5 (11737974_s_at) / RFU LRRC4B (11730491_at) / Fold change /veh LRRC4B (11730491_at) / RFU GIMAP4 (11747438_a_at) / Fold change /veh GIMAP4 (11747438_a_at) / RFU KRT8 (11758183_x_at) / Fold change /veh KRT8 (11758183_x_at) / RFU CNN1 (11734310_a_at) / Fold change /veh CNN1 (11734310_a_at) / RFU VPS37D (11726825_at) / Fold change /veh VPS37D (11726825_at) / RFU C10orf10 (11716522_x_at) / Fold change /veh C10orf10 (11716522_x_at) / RFU KIR2DL2 /// KIR2DL4 /// KIR2DL5A /// KIR2DL5B /// KIR2DS1 /// KIR2DS2 /// KIR2DS3 /// KIR2DS4 /// KIR3DL3 /// KIR3DL3 /// KIR3DS1 (11738374_at) / Fold change /veh KIR2DL2 /// KIR2DL4 /// KIR2DL5A /// KIR2DL5B /// KIR2DS1 /// KIR2DS2 /// KIR2DS3 /// KIR2DS4 /// KIR3DL3 /// KIR3DL3 /// KIR3DS1 (11738374_at) / RFU C1QL1 (11718748_at) / Fold change /veh C1QL1 (11718748_at) / RFU TMPRSS4 (11747572_a_at) / Fold change /veh TMPRSS4 (11747572_a_at) / RFU HAMP (11756126_x_at) / Fold change /veh HAMP (11756126_x_at) / RFU RNFT2 (11725882_a_at) / Fold change /veh RNFT2 (11725882_a_at) / RFU NR4A2 (11747474_a_at) / Fold change /veh NR4A2 (11747474_a_at) / RFU ABCC12 (11746883_a_at) / Fold change /veh ABCC12 (11746883_a_at) / RFU TMEM136 (11760407_x_at) / Fold change /veh TMEM136 (11760407_x_at) / RFU CLDN22 /// WWC2 (11732394_at) / Fold change /veh CLDN22 /// WWC2 (11732394_at) / RFU HLA-DPB1 (11760878_x_at) / Fold change /veh HLA-DPB1 (11760878_x_at) / RFU SPINT1 (11716480_a_at) / Fold change /veh SPINT1 (11716480_a_at) / RFU GAP43 (11754022_s_at) / Fold change /veh GAP43 (11754022_s_at) / RFU A4GNT (11735810_at) / Fold change /veh A4GNT (11735810_at) / RFU PRB3 (11715151_x_at) / Fold change /veh PRB3 (11715151_x_at) / RFU TUBB4B (11761932_at) / Fold change /veh TUBB4B (11761932_at) / RFU CAPN14 (11732068_a_at) / Fold change /veh CAPN14 (11732068_a_at) / RFU TMCC2 (11721928_a_at) / Fold change /veh TMCC2 (11721928_a_at) / RFU IRGQ (11745062_a_at) / Fold change /veh IRGQ (11745062_a_at) / RFU FAM174B (11720279_a_at) / Fold change /veh FAM174B (11720279_a_at) / RFU TMPRSS4 (11748680_a_at) / Fold change /veh TMPRSS4 (11748680_a_at) / RFU FAM212B (11763350_a_at) / Fold change /veh FAM212B (11763350_a_at) / RFU PLEKHG5 (11743358_a_at) / Fold change /veh PLEKHG5 (11743358_a_at) / RFU ZSCAN30 (11745921_a_at) / Fold change /veh ZSCAN30 (11745921_a_at) / RFU CMKLR1 (11741424_a_at) / Fold change /veh CMKLR1 (11741424_a_at) / RFU LOC101060620 /// MAPK8IP1 (11723275_at) / Fold change /veh LOC101060620 /// MAPK8IP1 (11723275_at) / RFU SPTSSB (11747773_x_at) / Fold change /veh SPTSSB (11747773_x_at) / RFU PRSS12 (11739890_at) / Fold change /veh PRSS12 (11739890_at) / RFU BIN1 (11741810_x_at) / Fold change /veh BIN1 (11741810_x_at) / RFU WNT11 (11732464_a_at) / Fold change /veh WNT11 (11732464_a_at) / RFU C10orf10 (11716521_a_at) / Fold change /veh C10orf10 (11716521_a_at) / RFU C5orf56 (11738089_at) / Fold change /veh C5orf56 (11738089_at) / RFU CYB561 (11721691_x_at) / Fold change /veh CYB561 (11721691_x_at) / RFU ANKRD19P (11752326_a_at) / Fold change /veh ANKRD19P (11752326_a_at) / RFU OR2T12 /// OR2T33 /// OR2T8 (11738714_s_at) / Fold change /veh OR2T12 /// OR2T33 /// OR2T8 (11738714_s_at) / RFU VCAN (11748164_a_at) / Fold change /veh VCAN (11748164_a_at) / RFU JSRP1 (11732532_at) / Fold change /veh JSRP1 (11732532_at) / RFU KRTAP10-11 (11738290_x_at) / Fold change /veh KRTAP10-11 (11738290_x_at) / RFU MYO3A (11730013_a_at) / Fold change /veh MYO3A (11730013_a_at) / RFU EBF3 (11725865_a_at) / Fold change /veh EBF3 (11725865_a_at) / RFU CAMK2N1 (11719241_x_at) / Fold change /veh CAMK2N1 (11719241_x_at) / RFU C5orf56 (11738088_a_at) / Fold change /veh C5orf56 (11738088_a_at) / RFU OLFML3 (11715873_a_at) / Fold change /veh OLFML3 (11715873_a_at) / RFU LOC100653217 /// NTM (11731650_a_at) / Fold change /veh LOC100653217 /// NTM (11731650_a_at) / RFU MAPK11 (11762145_a_at) / Fold change /veh MAPK11 (11762145_a_at) / RFU FIZ1 (11724087_x_at) / Fold change /veh FIZ1 (11724087_x_at) / RFU OASL (11726364_x_at) / Fold change /veh OASL (11726364_x_at) / RFU SOX15 (11748057_x_at) / Fold change /veh SOX15 (11748057_x_at) / RFU CD79A (11719716_a_at) / Fold change /veh CD79A (11719716_a_at) / RFU HIST1H1D (11736915_at) / Fold change /veh HIST1H1D (11736915_at) / RFU CASKIN2 (11723855_a_at) / Fold change /veh CASKIN2 (11723855_a_at) / RFU LOC730098 (11760151_x_at) / Fold change /veh LOC730098 (11760151_x_at) / RFU OR4N2 (11742367_at) / Fold change /veh OR4N2 (11742367_at) / RFU PRRT2 (11749266_a_at) / Fold change /veh PRRT2 (11749266_a_at) / RFU SNX32 (11753110_a_at) / Fold change /veh SNX32 (11753110_a_at) / RFU CDHR5 (11726645_a_at) / Fold change /veh CDHR5 (11726645_a_at) / RFU RCAN1 (11760418_a_at) / Fold change /veh RCAN1 (11760418_a_at) / RFU FAM167A (11723789_a_at) / Fold change /veh FAM167A (11723789_a_at) / RFU FAM26E (11764081_at) / Fold change /veh FAM26E (11764081_at) / RFU ISYNA1 (11749810_s_at) / Fold change /veh ISYNA1 (11749810_s_at) / RFU ACY1 (11761880_at) / Fold change /veh ACY1 (11761880_at) / RFU 11764098_at / Fold change /veh 11764098_at / RFU SAMD14 (11745864_x_at) / Fold change /veh SAMD14 (11745864_x_at) / RFU NPB (11741838_a_at) / Fold change /veh NPB (11741838_a_at) / RFU TMPRSS6 (11731388_a_at) / Fold change /veh TMPRSS6 (11731388_a_at) / RFU KRTAP10-2 (11738614_at) / Fold change /veh KRTAP10-2 (11738614_at) / RFU ARHGAP8 /// PRR5-ARHGAP8 (11727945_x_at) / Fold change /veh ARHGAP8 /// PRR5-ARHGAP8 (11727945_x_at) / RFU KRTAP5-7 /// NADSYN1 (11734609_at) / Fold change /veh KRTAP5-7 /// NADSYN1 (11734609_at) / RFU RASL12 (11751679_a_at) / Fold change /veh RASL12 (11751679_a_at) / RFU CDKN2B (11736163_a_at) / Fold change /veh CDKN2B (11736163_a_at) / RFU PRF1 (11729649_at) / Fold change /veh PRF1 (11729649_at) / RFU, ZNF638 /// ZNF638-IT1 / Fold change vs veh, ZNF638 /// ZNF638-IT1 / RFU, PANK3 / Fold change vs veh, PANK3 / RFU, SH3YL1 / Fold change vs veh, SH3YL1 / RFU, ZEB2 / Fold change vs veh, ZEB2 / RFU, NRIP1 / Fold change vs veh, NRIP1 / RFU, PTTG1IP / Fold change vs veh, PTTG1IP / RFU, CAPN2 / Fold change vs veh, CAPN2 / RFU, MED14 / Fold change vs veh, MED14 / RFU, SNORA58 / Fold change vs veh, SNORA58 / RFU, C1orf63 / Fold change vs veh, C1orf63 / RFU, LRRFIP1 / Fold change vs veh, LRRFIP1 / RFU, NDUFAF7 / Fold change vs veh, NDUFAF7 / RFU, SLC12A2 / Fold change vs veh, SLC12A2 / RFU, IBTK / Fold change vs veh, IBTK / RFU, ESF1 / Fold change vs veh, ESF1 / Fold change vs veh, TMEM50B / RFU, TAOK1 / Fold change vs veh, TAOK1 / RFU, ACBD3 / Fold change vs veh, ACBD3 / RFU, TMA16 / Fold change vs veh, TMA16 / RFU, RWDD3 / Fold change vs veh, RWDD3 / RFU, BCAT1 / Fold change vs veh, BCAT1 / RFU, EDEM3 / Fold change vs veh, EDEM3 / RFU, TMEM33 / Fold change vs veh, TMEM33 / RFU, WDR75 / Fold change vs veh, WDR75 / RFU, AHCTF1 / Fold change vs veh, AHCTF1 / RFU, TFRC / Fold change vs veh, TFRC / RFU, ZDHHC17 / Fold change vs veh, ZDHHC17 / RFU, NOM1 / Fold change vs veh, NOM1 / RFU, ARL8B / Fold change vs veh, ARL8B / RFU, ZBTB11 / Fold change vs veh, ZBTB11 / RFU, TAMM41 / Fold change vs veh, TAMM41 / RFU, KIAA1704 /// LOC100996395 / Fold change vs veh, KIAA1704 /// LOC100996395 / RFU, ING1 / Fold change vs veh, ING1 / RFU, TRMT61B / Fold change vs veh, TRMT61B / RFU, FUBP3 / Fold change vs veh, FUBP3 / RFU, TP53 / Fold change vs veh, TP53 / RFU, TNKS2 / Fold change vs veh, TNKS2 / RFU, ZFP14 / Fold change vs veh, ZFP14 / RFU, ACTR2 / Fold change vs veh, ACTR2 / RFU, PPP3R1 / Fold change vs veh, PPP3R1 / RFU, PIK3R1 / Fold change vs veh, PIK3R1 / RFU, HNRNPA1 / Fold change vs veh, HNRNPA1 / RFU, RNF170 / Fold change vs veh, RNF170 / RFU, ZNF28 / Fold change vs veh, ZNF28 / RFU, RNGTT / Fold change vs veh, RNGTT / RFU, OGT / Fold change vs veh, OGT / RFU, BRD1 / Fold change vs veh, BRD1 / RFU, MARS / Fold change vs veh, MARS / RFU, ZNF655 / Fold change vs veh, ZNF655 / RFU, FAHD1 / Fold change vs veh, FAHD1 / RFU, BDP1 / Fold change vs veh, BDP1 / RFU, LRRCC1 / Fold change vs veh, LRRCC1 / RFU, ARID1A / Fold change vs veh, ARID1A / RFU, ZNF146 / Fold change vs veh, ZNF146 / RFU, ZNF330 / Fold change vs veh, ZNF330 / RFU, GPN3 / Fold change vs veh, GPN3 / RFU, C9orf123 / Fold change vs veh, C9orf123 / RFU, N4BP2L2 / Fold change vs veh, N4BP2L2 / RFU, ARFIP1 / Fold change vs veh, ARFIP1 / RFU, FAM179B / Fold change vs veh, FAM179B / RFU, BCL10 / Fold change vs veh, BCL10 / RFU, UHRF1BP1L / Fold change vs veh, UHRF1BP1L / RFU, BET1 / Fold change vs veh, BET1 / RFU, CNOT2 / Fold change vs veh, CNOT2 / RFU, ZNF268 / Fold change vs veh, ZNF268 / Fold change vs veh, ZNF507 / RFU, DGCR2 / Fold change vs veh, DGCR2 / RFU, WDSUB1 / Fold change vs veh, WDSUB1 / Fold change vs veh, HSP90B1 /// MIR3652 / RFU, ADSS / Fold change vs veh, ADSS / RFU, GK / Fold change vs veh, GK / RFU, ZNF148 / Fold change vs veh, ZNF148 / RFU, TAF9 / Fold change vs veh, TAF9 / RFU, SLC1A5 / Fold change vs veh, SLC1A5 / RFU, SLMO2 / Fold change vs veh, SLMO2 / RFU, ABCC4 / Fold change vs veh, ABCC4 / RFU, LOC101060439 /// RAP1B / Fold change vs veh, LOC101060439 /// RAP1B / RFU, RFX7 / Fold change vs veh, RFX7 / RFU, GTPBP10 / Fold change vs veh, GTPBP10 / RFU, CNEP1R1 / Fold change vs veh, CNEP1R1 / RFU, BIVM-ERCC5 /// ERCC5 / Fold change vs veh, BIVM-ERCC5 /// ERCC5 / RFU, ILF3 / Fold change vs veh, ILF3 / RFU 11762660_at / Fold change /veh 11762660_at / RFU VCAN (11757783_s_at) / Fold change /veh VCAN (11757783_s_at) / RFU DDX43 (11728927_at) / Fold change /veh DDX43 (11728927_at) / RFU KRT8 (11758188_x_at) / Fold change /veh KRT8 (11758188_x_at) / RFU NKD1 (11759106_at) / Fold change /veh NKD1 (11759106_at) / RFU SRD5A1 (11742802_a_at) / Fold change /veh SRD5A1 (11742802_a_at) / RFU TPSAB1 /// TPSB2 (11721975_s_at) / Fold change /veh TPSAB1 /// TPSB2 (11721975_s_at) / RFU GSTM3 (11746129_a_at) / Fold change /veh GSTM3 (11746129_a_at) / RFU IL23R (11737362_x_at) / Fold change /veh IL23R (11737362_x_at) / RFU TMEM51 (11727254_a_at) / Fold change /veh TMEM51 (11727254_a_at) / RFU PIWIL2 (11732686_x_at) / Fold change /veh PIWIL2 (11732686_x_at) / RFU ORM1 (11744905_x_at) / Fold change /veh ORM1 (11744905_x_at) / RFU CCDC152 (11743942_at) / Fold change /veh CCDC152 (11743942_at) / RFU ECM1 (11717891_a_at) / Fold change /veh ECM1 (11717891_a_at) / RFU IL23R (11748794_a_at) / Fold change /veh IL23R (11748794_a_at) / RFU TNFAIP8L3 (11732012_x_at) / Fold change /veh TNFAIP8L3 (11732012_x_at) / RFU MBOAT4 (11741988_at) / Fold change /veh MBOAT4 (11741988_at) / RFU 11764193_at / Fold change /veh 11764193_at / RFU TMEM53 (11763286_at) / Fold change /veh TMEM53 (11763286_at) / RFU MAGEB2 (11727129_at) / Fold change /veh MAGEB2 (11727129_at) / RFU TMEM200A (11744735_a_at) / Fold change /veh TMEM200A (11744735_a_at) / RFU CCDC152 (11751479_a_at) / Fold change /veh CCDC152 (11751479_a_at) / RFU FAM211A (11726209_a_at) / Fold change /veh FAM211A (11726209_a_at) / RFU RGS16 (11746705_a_at) / Fold change /veh RGS16 (11746705_a_at) / RFU VCAN (11755009_s_at) / Fold change /veh VCAN (11755009_s_at) / RFU RHOB (11743442_s_at) / Fold change /veh RHOB (11743442_s_at) / RFU RGS16 (11720943_a_at) / Fold change /veh RGS16 (11720943_a_at) / RFU RGS16 (11720944_at) / Fold change /veh RGS16 (11720944_at) / RFU, VPS4B / Fold change vs veh, VPS4B / RFU, CREB1 / Fold change vs veh, CREB1 / RFU, DNAJC13 / Fold change vs veh, DNAJC13 / RFU, GNAQ / Fold change vs veh, GNAQ / RFU, CDK5R1 / Fold change vs veh, CDK5R1 / RFU, ZRANB3 / Fold change vs veh, ZRANB3 / RFU, CUL4A / Fold change vs veh, CUL4A / RFU, CCNY / Fold change vs veh, CCNY / RFU, UFL1 / Fold change vs veh, UFL1 / RFU, COG3 / Fold change vs veh, COG3 / RFU, DIAPH2 / Fold change vs veh, DIAPH2 / RFU, SKA2 / Fold change vs veh, SKA2 / RFU, AFF3 / Fold change vs veh, AFF3 / RFU, LMF1 / Fold change vs veh, LMF1 / RFU, IPO11 / Fold change vs veh, IPO11 / RFU, DFFB / Fold change vs veh, DFFB / RFU, FOXP1 / Fold change vs veh, FOXP1 / RFU, CARD8 / Fold change vs veh, CARD8 / RFU, STRN3 / Fold change vs veh, STRN3 / RFU, ADK / Fold change vs veh, ADK / RFU, RASSF2 / Fold change vs veh, RASSF2 / RFU, WIPF1 / Fold change vs veh, WIPF1 / RFU, LARP1B / Fold change vs veh, LARP1B / RFU, RASA1 / Fold change vs veh, RASA1 / RFU, RB1 / Fold change vs veh, RB1 / RFU, PPFIA1 / Fold change vs veh, PPFIA1 / RFU, MAT2A / Fold change vs veh, MAT2A / RFU, CCT5 / Fold change vs veh, CCT5 / RFU, WDR92 / Fold change vs veh, WDR92 / RFU, CUX1 / Fold change vs veh, CUX1 / RFU, TTC7A / Fold change vs veh, TTC7A / RFU, TMEM135 / Fold change vs veh, TMEM135 / RFU, DEPTOR / Fold change vs veh, DEPTOR / RFU, CPM / Fold change vs veh, CPM / RFU, DNAJB6 / Fold change vs veh, DNAJB6 / RFU, CACNA2D3 / Fold change vs veh, CACNA2D3 / RFU, DTX4 / Fold change vs veh, DTX4 / RFU, TFCP2 / Fold change vs veh, TFCP2 / RFU, GMCL1 /// GMCL1P1 / Fold change vs veh, GMCL1 /// GMCL1P1 / RFU, AEBP2 / Fold change vs veh, AEBP2 / RFU, SNHG1 /// SNORD22 /// SNORD25 /// SNORD26 /// SNORD27 /// SNORD28 /// SNORD29 /// SNORD31 / Fold change vs veh, SNHG1 /// SNORD22 /// SNORD25 /// SNORD26 /// SNORD27 /// SNORD28 /// SNORD29 /// SNORD31 / Fold change (Aza/veh), C12orf56 (ProbeSet 11735607_a_at) / Fold change (ACY-1035/veh), C12orf56 (ProbeSet 11735607_a_at) / Fold change (Aza/veh), FGFR1OP (ProbeSet 11751329_s_at) / Fold change (ACY-1035/veh), FGFR1OP (ProbeSet 11751329_s_at) / Fold change (Aza/veh), VPS36 (ProbeSet 11739960_a_at) / Fold change (ACY-1035/veh), VPS36 (ProbeSet 11739960_a_at) / RFU SYPL1 (11715823_x_at) / Fold change /veh SYPL1 (11715823_x_at) / RFU IGFBP7 (11715501_s_at) / Fold change /veh IGFBP7 (11715501_s_at) / RFU REEP3 (11722064_at) / Fold change /veh REEP3 (11722064_at) / RFU IGLL1 (11728026_x_at) / Fold change /veh IGLL1 (11728026_x_at): dose or concentration left out as unconfirmed", "conditions": "MV-4-11 cells, 48 hours", "data": [{"smiles": "Nc1ncn([C@@H]2O[C@H](CO)[C@@H](O)[C@H]2O)c(=O)n1", "note": "[azacitidine]", "values": [{"measurement": "Fold change /veh SAMD14 (11745864_x_at)", "result": 0.91}]}]}
